# How the values were obtained:
# Format in all cases: physicochemical
# [1] = Stability and comparison example: samples set out for 6 weeks at 75% relative humidity at elevated temperature; potency and degradation by HPLC, water by Karl Fischer, X-ray powder diffraction; settings: for POTENCY (%): 75% relative humidity, temperature of 400 (so in the source); for POTENCY (%) / Degradation (%): HPLC, anhydrous basis; for WATER (%): Karl Fischer
# Protocol: • 5.3% of water, and • 2.8% of water are set out for 6 weeks to an environment having a relative humidity of 75% at a temperature of 400. Potency (content) of azithromycin, azithromycin degradation and water content in the samples are determined in week 0, week 2, week 4 and week 6. Potency and degradation are determined on azithromycin anhydrous basis by HPLC. The water content is determined by the Karl Fischer method. Results are Obtained • for azithromycin comprising 5.3% of water as set out in TABLE 1 below, • for azithromycin comprising 2.8% of water as set out in TABLE 2 below:
# The potency of azithromycin in % of each sample within the corresponding time period is set out in TABLE 1 and TABLE 2 under “Potency (%)”.
# The degradation of azithromycin in % of each sample within the corresponding time period is set out in TABLE 1 and TABLE 2 under “Degradation (%).
# The water content in % of each sample within the corresponding time period is indicated in TABLE 1 and TABLE 2 under “Water (%)”.
# [2] = as above; settings: 6 weeks under normal air humidity conditions at elevated temperatures
# [3] = Water content (K. Fischer) and X-ray powder diffraction pattern at room temperature under normal air humidity conditions
# Protocol: In the following examples all temperatures are in degree Centigrade and are uncorrected. The X-ray powder diffraction pattern of azithromycin in the form of a monohydrate obtained according to the following example corresponds to that of azithromycin in the form of a monohydrate. […] Water content (% w/w) is determined by the K. Fischer
# To a suspension of 20 g of azithromycin in 83 ml of water, HCl is added until dissolution occurs. The solution obtained is filtrated, in order to remove undissolved particles, and the filtrate obtained is added dropwise to 103 ml of water whilst adjusting the pH to 10 to 11 by addition of 20% NaOH at a temperature of ca. 55° C. A solid precipitates, is filtrated off, washed and dried until a water content of 4.0 to 6.5% is achieved. 18.4 g of azithromycin in the form of a monohydrate in crystalline form are obtained. Water content: 6.0% Water content after 2 days at room temperature under normal air humidity conditions: 6.3% Water content after 13 days at room temperature under normal air humidity conditions: 6.3%
POTENCY (%) ([1]; week 0),WATER (%) ([1]; week 0),"Degradation (%) ([1]; week 2, 75% humidity, 40° C.)","WATER (%) ([1]; week 2, 75% humidity, 40° C.)","Degradation (%) ([1]; week 4, 75% humidity, 40° C.)","WATER (%) ([1]; week 4, 75% humidity, 40° C.)","Degradation (%) ([1]; week 6, 75% humidity, 40° C.)","WATER (%) ([1]; week 6, 75% humidity, 40° C.)",POTENCY (%) ([1]; week 6),Compound,other results
99.8%,5.3%,0.1%,5.3%,0.1%,5.3%,0.1%,5.3%,99.5%,"CC[C@H]1OC(=O)[C@H](C)[C@@H](O[C@H]2C[C@@](C)(OC)[C@@H](O)[C@H](C)O2)[C@H](C)[C@@H](O[C@@H]2O[C@H](C)C[C@H](N(C)C)[C@H]2O)[C@](C)(O)C[C@@H](C)CN(C)[C@H](C)[C@@H](O)[C@]1(C)O [azithromycin comprising 5.3% of water, 9-deoxo-9a-aza-9a-methyl-9a-homoerythromycin A]",POTENCY (%) ([1]; week 2): 98.9%; POTENCY (%) ([1]; week 4): 99.5%
–,–,–,–,–,–,–,–,–,"CC[C@H]1OC(=O)[C@H](C)[C@@H](O[C@H]2C[C@@](C)(OC)[C@@H](O)[C@H](C)O2)[C@H](C)[C@@H](O[C@@H]2O[C@H](C)C[C@H](N(C)C)[C@H]2O)[C@](C)(O)C[C@@H](C)CN(C)[C@H](C)[C@@H](O)[C@]1(C)O [Example, 9-deoxo-9a-aza-9a-methyl-9a-homoerythromycin A]","Crystallinity and X-ray powder diffraction pattern on storage [2]: maintains its crystallinity and its X-ray powder diffraction pattern; Degradation products on storage [2]: contains substantially no degration products; Water content ([3]; after 2 days at room temperature under normal air humidity conditions): 6.3%; Water content ([3]; after 13 days at room temperature under normal air humidity conditions): 6.3%; Water content ([3]; as obtained after drying, % w/w, K. Fischer): 6.0%; X-ray diffraction powder pattern ([3]; on day 1, on day 2 and on day 13): corresponds to the X-ray diffraction powder pattern of azithromycin in the form of a monohydrate"
–,–,–,–,–,–,~0.1%,–,–,CC[C@H]1OC(=O)[C@H](C)[C@@H](O[C@H]2C[C@@](C)(OC)[C@@H](O)[C@H](C)O2)[C@H](C)[C@@H](O[C@@H]2O[C@H](C)C[C@H](N(C)C)[C@H]2O)[C@](C)(O)C[C@@H](C)CN(C)[C@H](C)[C@@H](O)[C@]1(C)O [azithromycin according to the present invention] [9-deoxo-9a-aza-9a-methyl-9a-homoerythromycin A],"Water content compared with week 0 ([1]; 40° C., 75% humidity, within 4 weeks and even 6 weeks): remains substantially the same as in week 0; Time for which the X-ray powder diffraction pattern (crystalline structure) is maintained ([1]; normal air humidity conditions, even at elevated temperatures): at least 2 weeks"
99.7%,2.8%,2.5%,2.8%,6.1%,3.3%,6.6%,3.6%,91.6%,"CC[C@H]1OC(=O)[C@H](C)[C@@H](O[C@H]2C[C@@](C)(OC)[C@@H](O)[C@H](C)O2)[C@H](C)[C@@H](O[C@@H]2O[C@H](C)C[C@H](N(C)C)[C@H]2O)[C@](C)(O)C[C@@H](C)CN(C)[C@H](C)[C@@H](O)[C@]1(C)O [azithromycin comprising 2.8% of water, 9-deoxo-9a-aza-9a-methyl-9a-homoerythromycin A, reference compound]","Degradation (%) ([1]; week 2, 75% humidity, 40° C., listed as azithromycin in the form of a monohydrate having a water content of 2.8% to 3.6%): 2.5%; Degradation (%) ([1]; week 6, 75% humidity, 40° C., listed as azithromycin in the form of a monohydrate having a water content of 2.8% to 3.6%): ~7%"

# Source: US6949519B2, “Macrolide solvates” (Sandoz AG, priority 2000, dated 2005)
